Experimental data from US20240368150A1 (Hoffmann-La Roche Inc., priority 2021, published 2024).
Where two headings read alike, the source gives them in different places.

Tests used:
primary human T-cells [1] = system: primary human T-cells
Protocol: As readouts for T-cell activation, IL2 secretion after 24 hours and proliferation after 5 days was measured. Increases in IL2 secretion and proliferation upon compound treatment were assessed as the % of the maximum of reference compound A1. […] As a counter screen and to make sure that no unwanted TCR-independent activation was triggered, PBS conditions were run for all compounds.
For coating of plates, PBS++ with PBS−− or PBS++ with CD3 antibody (concentration depending on donor and determined by CD3 titrations) was added 100 μl/well to Poly-D Lysine coated 96-well plates. Plates were sealed and incubated at room temperature for 3 hours on a table-top rocking platform. After incubation, plates were washed once with PBS−− and filled with 40 μl/well culture medium only. Compounds were then added (see next section) to medium only plates. After 3 hours of culturing the T-cells, cells were filtered through a cell strainer (Miltenyi Biotech, #130-041-407), counted again and concentration was adjusted to 1.25 Mio/ml.
Cells were then seeded 80 μl/well to the 40 μl/well including dispensed compounds according to plate layout. By adding cells, compounds were further diluted 1:3, and resulting in 100 k cells/120 μl/well. After 24 hours 40 μl of supernatant was collected carefully from the top while not disturbing the cells and transferred into a round bottom 96 well plate. Collected and frozen supernatant was used for detection of IL2 using the IL-2 Human ProQuantum Immunoassay Kit (Invitrogen) or using the Human IL-2 ELISA Kit (Thermo Fisher).
Compounds were added in a 5 or 6pt dose response with the Tecan D300e Digital Dispenser, all conditions 3 times more concentrated than the end-concentration, since cells are added afterwards (80 μl cells to 40 μl prepared medium with treatment). The DR was starting at 20 μM or 10 μM final top concentration and a dilution factor of 3.333. The positive control was the reference compound A1 that was added in a dose response as well, additionally to 3 wells of only 20 μM representing the positive stimulator control. All wells were normalized with DMSO to a final concentration of 0.6% (0.2% end-concentration).
The immunoassay is done following the manufacturer's manual (Invitrogen, #A35603). Additional information: For the immunoassay, MicroAmp™ EnduraPlate™ Optical 384-Well plates are used. Frozen supernatant is thawed and centrifuged for 5 minutes at 1000×g, both steps at 4° C. After centrifugation, required sample amount is taken from the top, and in a separate LightCycler V-bottom plate (working plate) diluted with assay dilution buffer, dilution factor depending on the PBS or CD3 condition but at least 1:3. IL-2 standard and blanks are prepared in the same V-bottom plate, standard with a range of 0.0128-5000 pg/ml (extended version). After preparation, 5 μl of sample dilutions or standard/blanks are transferred to the optical 384-well plate (assay plate) and the 10 μl reaction protocol is being followed. For measurement, the QuantStudio 12K Flex system is used.
ELISA is done following the manufacturer's manual (Thermo Fisher Scientific, #88-7025-88). Additional information: For the ELISA Nunc MaxiSorp 96 well plates are used. Frozen supernatant is thawed and centrifuged for 5 minutes at 1000×g, both steps at 4° C. After that, required sample amount is taken from the top, and in a separate V-bottom plate diluted with ELISA diluent, dilution factor depending on the PBS or CD3 condition. IL-2 standard and blanks are prepared in the same V-bottom plate. After preparation, 50 μl of sample dilutions and 100 μl of standard or blanks are transferred to the Nunc plates.
CD3 and PBS plates were analysed separately in Genedata Screener using Roche Normalization PCT_POS_CTRL with DMSO set as Neutral Control and 20 μM of the reference compound A1 set as Stimulator Control/100%.
For CD3 conditions EC50 and Emax of the fitted sigmoidal curve were reported.

MV-3 cells = assay: T-cell - TCB - MV3 killing assay (MCSP-TCB, RFP object count by Incucyte); assay type: cell-based, human; settings: 5 d; for Emax: read-out: MSCP TCB killing MV-3 cells 5 d Emax; for EC50: primary human T-cells + MCSP-TCB, MV-3 RFP cells, read-out: MSCP TCB killing MV-3 cells 5 d EC50
primary human T-cells [2] = assay: Proliferation assay after 5 days (CellTiter-Glo, CD3 stimulation; PBS counter screen); assay type: cell-based; settings: CD3 stimulation; for Emax / Emax proliferation (% activation): 5 days, normalized to reference compound A1 as stimulator control = 100%, DMSO neutral control; for Emax: read-out: Emax proliferation (% activation); for EC50: primary human T-cells, CellTiter-Glo after 5 days, EC50 of fitted sigmoidal curve, read-out: Tcell Proliferation CD3 EC50
How it was run: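 Luminescent ATP detection (CellTiter-Glo 2.0) quantified cell number 5 days after compounds went onto medium-only plates. Wells showing visible toxicity or precipitate were noted beforehand, and compounds that stimulated unstimulated cells or lowered viability were flagged.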

[3] = Homo sapiens, MV-3, 120 h, normalized: MCSP-TCB only = neutral control, 20 μM reference compound A1 = 100%

Compound	EC50 (primary human T-cells [1]) [nM]	Emax (MV-3 cells; [3]) [%]	EC50 (MV-3 cells) [nM]	Emax (primary human T-cells [2]; Homo sapiens, T-cell, 120 h) [%]	EC50 (primary human T-cells [2]; Homo sapiens, T-cell, 120 h) [nM]	EC50 (MV-3 cells; Homo sapiens, MV-3, 120 h) [nM]	EC50 (primary human T-cells [2]) [nM]	MSCP TCB killing MV-3 cells 5 d Emax (MV-3 cells; normalized: MCSP-TCB only = neutral control, 20 μM reference compound A1 = 100%) [%]	Emax proliferation (% activation) (primary human T-cells [2])
N[C@H]1C[S+]([O-])c2cc(F)c(-c3noc(N4CCOC5(CC5)C4)n3)cc2N(Cc2ccc(Cl)cc2)C1=O (single isomer, unassigned; epimer a) [Example 211]	793	86				45	326		
CC(C)(C)c1nnc(-c2cc3c(cc2F)[S+]([O-])C[C@H](N)C(=O)N3Cc2ccc(Cl)cc2)o1 (single isomer, unassigned; epimer b) [Example 187]	594		1640				1540	57	92
CCc1cn(-c2cc3c(cc2F)S(=O)(=O)C[C@H](N)C(=O)N3Cc2ccc(Cl)cc2)nn1 [Example 3, (3R)-3-amino-5-[(4-chlorophenyl)methyl]-7-(4-ethyltriazol-1-yl)-8-fluoro-1,1-dioxo-2,3-dihydro-1λ^6,5-benzothiazepin-4-one]	12000	100	1550	68	4300				
CCc1noc(-c2cc3c(cc2F)S(=O)(=O)C[C@H](N)C(=O)N3Cc2ccc(Cl)cc2)n1 [Example 41, (3R)-3-Amino-5-[(4-chlorophenyl)methyl]-7-(3-ethyl-1,2,4-oxadiazol-5-yl)-8-fluoro-1,1-dioxo-2,3-dihydro-1λ^6,5-benzothiazepin-4-one]		92	230	61	9360				
CC(C)(C)c1nnc(-c2cc3c(cc2F)SC[C@H](N)C(=O)N3Cc2ccc(OC(F)(F)F)cc2)o1 [Example 54, (3R)-3-amino-7-(5-tert-butyl-1,3,4-oxadiazol-2-yl)-8-fluoro-5-[[4-(trifluoromethoxy)phenyl]methyl]-2,3-dihydro-1,5-benzothiazepin-4-one]		123		116	1120	300			
N[C@H]1CS(=O)(=O)c2cc(F)c(-c3nnc(CC(F)(F)F)o3)cc2N(Cc2ccc(OC(F)(F)F)cc2)C1=O [Example 56, (3R)-3-Amino-8-fluoro-1,1-dioxo-7-[5-(2,2,2-trifluoroethyl)-1,3,4-oxadiazol-2-yl]-5-[[4-(trifluoromethoxy)phenyl]methyl]-2,3-dihydro-1λ^6,5-benzothiazepin-4-one]		123	110	136	414				
N[C@H]1CS(=O)(=O)c2cc(F)c(-c3nnc(C4CCCCC4(F)F)o3)cc2N(Cc2ccc(Cl)cc2)C1=O (stereo partly drawn) [Example 74, (3R)-3-Amino-5-[(4-chlorophenyl)methyl]-7-[5-(2,2-difluorocyclohexyl)-1,3,4-oxadiazol-2-yl]-8-fluoro-1,1-dioxo-2,3-dihydro-1λ^6,5-benzothiazepin-4-one]	55.2	97	20	180	48.7				
CC(C)(C)c1cn(-c2cc3c(cc2F)S(=O)(=O)C[C@H](N)C(=O)N3Cc2ccc(Cl)cc2)cn1 [Example 527]	292						1280		69
(3R)-3-amino-5-[(4-chlorophenyl)methyl]-7-[5-(2,2-difluoromorpholin-4-yl)-1,3,4-oxadiazol-2-yl]-1,1-dioxo-2,3-dihydro-1λ^6,5-benzothiazepin-4-one [Example 413]	1080						193		160
(3R)-3-amino-7-[5-[4-(chloromethyl)-4-(hydroxymethyl)cyclohexyl]-1,3,4-oxadiazol-2-yl]-5-[(4-chlorophenyl)methyl]-8-fluoro-1,1-dioxo-2,3-dihydro-1λ^6.5-benzothiazepin-4-one [Example 482]	1250						786		106

Further compounds by falling EC50 (primary human T-cells [1]), results first:

EC50 (primary human T-cells [1]) [nM]	Compound	Emax (MV-3 cells; [3]) [%]	EC50 (MV-3 cells) [nM]	Emax (primary human T-cells [2]; Homo sapiens, T-cell, 120 h) [%]	EC50 (primary human T-cells [2]; Homo sapiens, T-cell, 120 h) [nM]	EC50 (MV-3 cells; Homo sapiens, MV-3, 120 h) [nM]	EC50 (primary human T-cells [2]) [nM]	MSCP TCB killing MV-3 cells 5 d Emax (MV-3 cells; normalized: MCSP-TCB only = neutral control, 20 μM reference compound A1 = 100%) [%]	Emax proliferation (% activation) (primary human T-cells [2])
3240	CCc1nnc(-c2cc3c(cc2F)S(=O)(=O)C[C@H](N)C(=O)N3Cc2ccc(Cl)cc2)o1 [Example 72, (3R)-3-Amino-5-[(4-chlorophenyl)methyl]-7-(5-ethyl-1,3,4-oxadiazol-2-yl)-8-fluoro-1,1-dioxo-2,3-dihydro-1λ^6,5-benzothiazepin-4-one]	115	310	124	1140				
2320	CC(C)(C)c1noc(-c2cc3c(cc2F)S(=O)(=O)C[C@H](N)C(=O)N3Cc2ccc(Cl)cc2)n1 [Example 43, (3R)-3-Amino-7-(3-tert-butyl-1,2,4-oxadiazol-5-yl)-5-[(4-chlorophenyl)methyl]-8-fluoro-1,1-dioxo-2,3-dihydro-1λ^6,5-benzothiazepin-4-one]	102		143	265	40			
2180	N[C@H]1CS(=O)(=O)c2cc(F)c(-c3nc(CC(F)(F)F)no3)cc2N(Cc2ccc(Cl)cc2)C1=O [Example 49, (3R)-3-amino-5-[(4-chlorophenyl)methyl]-8-fluoro-1,1-dioxo-7-[3-(2,2,2-trifluoroethyl)-1,2,4-oxadiazol-5-yl]-2,3-dihydro-1λ^6,5-benzothiazepin-4-one]	100	170	112	585				
967	CN1CCC(n2nnc(-c3cc4c(cc3F)S(=O)(=O)C[C@H](N)C(=O)N4Cc3ccc(Cl)cc3)n2)C1 (stereo partly drawn) [Example 12, (3R)-3-amino-5-[(4-chlorophenyl)methyl]-8-fluoro-7-[2-(1-methylpyrrolidin-3-yl)tetrazol-5-yl]-1,1-dioxo-2,3-dihydro-1λ^6,5-benzothiazepin-4-one]	96	910	84	1020				
686	CC(C)(CO)c1noc(-c2cc3c(cc2F)S(=O)(=O)C[C@H](N)C(=O)N3Cc2ccc(Cl)cc2)n1 (racemic) [Example 46]	83	1040	94	1820				
472	CC(C)(C)n1nnc(-c2ccc3c(c2)N(Cc2ccc(Cl)cc2)C(=O)[C@@H](N)CS3(=O)=O)n1 [Example 36]	81	390	86	404				
93.8	CC(C)(C)n1nnc(-c2cc3c(cc2F)S(=O)(=O)C[C@H](N)C(=O)N3Cc2ccc(Cl)cc2)n1 [Example 8, (3R)-3-amino-7-(2-tert-butyltetrazol-5-yl)-5-[(4-chlorophenyl)methyl]-8-fluoro-1,1-dioxo-2,3-dihydro-1λ^6,5-benzothiazepin-4-one]	96		130	84.5	70			
67.1	CC(C)(C)c1nnc(-c2cc3c(cc2F)S(=O)(=O)C[C@H](N)C(=O)N3Cc2ccc(Cl)cc2)o1 [Example 63, (3R)-3-amino-7-(5-tert-butyl-1,3,4-oxadiazol-2-yl)-5-[(4-chlorophenyl)methyl]-8-fluoro-1,1-dioxo-2,3-dihydro-1λ^6,5-benzothiazepin-4-one]	93		141	48.8	20			
